From ChEMBL document CHEMBL1201862, “PubChem BioAssay data set” (2004)
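How tested: cells in 96-well plates exposed to compound for 48 hours at five concentrations. GI50 = concentration required for 50% inhibition of growth.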 The source made the active and inactive calls. No stated cut-off is given here; in the data, active = GI50 up to about 1.1 µM and inactive = higher.

Columns and labels:
Test in all cases: inhibition of tumour cell growth, NCI panel, 48 h
UACC-62 = system: UACC-62
MDA-N = system: MDA-N
HCC 2998 = system: HCC 2998
OVCAR-4 = system: OVCAR-4
SF-268 = system: SF-268
T47D = system: T47D
SK-MEL-2 = system: SK-MEL-2
MOLT-4 = system: MOLT-4
MDA-MB-231 = system: MDA-MB-231
HOP-62 = system: HOP-62
Malme-3M = system: Malme-3M
LOX IMVI = system: LOX IMVI
HT-29 = system: HT-29
COLO 205 = system: COLO 205
SR = system: SR
NCI-H23 = system: NCI-H23
SK-OV-3 = system: SK-OV-3
SF-539 = system: SF-539
UO-31 = system: UO-31

SMILES | GI50 (UACC-62) | GI50 (MDA-N) | GI50 (HCC 2998) | GI50 (OVCAR-4) | GI50 (SF-268) | GI50 (T47D) | GI50 (SK-MEL-2) | GI50 (MOLT-4) | GI50 (MDA-MB-231) | GI50 (HOP-62) | GI50 (Malme-3M) | GI50 (LOX IMVI) | GI50 (HT-29) | GI50 (COLO 205) | GI50 (SR) | GI50 (NCI-H23) | GI50 (SK-OV-3) | GI50 (SF-539) | GI50 (UO-31)
CC[C@@H]1/C=C/C=C/C[C@H](C)[C@@H](O)[C@@H](C)C(=O)[C@H](C)[C@@H](O)[C@H](C)C(=O)[C@H](C)[C@@H](O)[C@H](C)/C=C/C(=O)O[C@H]2[C@@H](C)[C@@H](CC1)O[C@@]1(CC[C@@H](C)[C@@H](CC(C)O)O1)[C@@H]2C (some centres undefined) | 3.32 µM (inactive) | 3.06 µM (inactive) | 1.78 µM (inactive) | 0.057 µM (active) | 6.98 µM (inactive) | < 0.0025 µM (active) | 4.58 µM (inactive) | 0.815 µM (active) | 4.35 µM (inactive) | 4.38 µM (inactive) | 6.34 µM (inactive) | 5.83 µM (inactive) | 2.94 µM (inactive) | 0.00408 µM (active) | 3.01 µM (inactive) | 0.00361 µM (active) | 7.76 µM (inactive) | 6.46 µM (inactive) | –
Cc1cc(N(CCC#N)CCC#N)ccc1C(=N/NC(=O)c1cc(Cl)ccc1O)/N=N/c1cccc(Cl)c1 | 10.6 µM (inactive) | 29.5 µM (inactive) | 12 µM (inactive) | 8.85 µM (inactive) | 11.8 µM (inactive) | 15.4 µM (inactive) | 10.8 µM (inactive) | 4.81 µM (inactive) | 15.7 µM (inactive) | 13.2 µM (inactive) | 14.2 µM (inactive) | 11.4 µM (inactive) | 16.1 µM (inactive) | 5.96 µM (inactive) | 6.04 µM (inactive) | 13.7 µM (inactive) | 20.6 µM (inactive) | 30.1 µM (inactive) | 18.9 µM (inactive)
CC(C(=O)O)C1Nc2ccccc2NC1=O (centres undefined) | > 100 µM (inactive) | > 100 µM (inactive) | > 100 µM (inactive) | > 100 µM (inactive) | > 100 µM (inactive) | > 100 µM (inactive) | > 100 µM (inactive) | 25.2 µM (inactive) | > 100 µM (inactive) | – | > 100 µM (inactive) | > 100 µM (inactive) | > 100 µM (inactive) | > 100 µM (inactive) | 65.6 µM (inactive) | > 100 µM (inactive) | > 100 µM (inactive) | > 100 µM (inactive) | > 100 µM (inactive)
COc1ccc2[nH]c3nnc(N)c-3nc2c1 | 7.01 µM (inactive) | 12 µM (inactive) | 14.1 µM (inactive) | 20 µM (inactive) | 6.21 µM (inactive) | 7.5 µM (inactive) | 5.28 µM (inactive) | 5.73 µM (inactive) | 18.9 µM (inactive) | 6.14 µM (inactive) | 21.8 µM (inactive) | 4.11 µM (inactive) | 5.58 µM (inactive) | 3.62 µM (inactive) | 4.1 µM (inactive) | 4.17 µM (inactive) | 20.4 µM (inactive) | 3.74 µM (inactive) | 9.73 µM (inactive)
CN(C)CCSCCO | > 100 µM (inactive) | > 100 µM (inactive) | > 100 µM (inactive) | > 100 µM (inactive) | > 100 µM (inactive) | > 100 µM (inactive) | > 100 µM (inactive) | – | > 100 µM (inactive) | > 100 µM (inactive) | > 100 µM (inactive) | > 100 µM (inactive) | > 100 µM (inactive) | > 100 µM (inactive) | > 100 µM (inactive) | > 100 µM (inactive) | > 100 µM (inactive) | > 100 µM (inactive) | > 100 µM (inactive)
COc1ccc(S(=O)(=O)Nc2ccc(-c3csc(N4C(=O)/C(=C/c5ccccc5[N+](=O)[O-])N=C4c4ccccc4)n3)cc2)cc1Cl | 34.3 µM (inactive) | 60 µM (inactive) | 22.9 µM (inactive) | 19.7 µM (inactive) | 38.8 µM (inactive) | 24.5 µM (inactive) | 60.5 µM (inactive) | 29.9 µM (inactive) | 20.3 µM (inactive) | > 100 µM (inactive) | 58.9 µM (inactive) | 34.8 µM (inactive) | > 100 µM (inactive) | 65.8 µM (inactive) | 30.8 µM (inactive) | 20.8 µM (inactive) | > 100 µM (inactive) | 80.2 µM (inactive) | 32.3 µM (inactive)
CC(=O)Oc1ccc(C2SCc3nc4ccccc4n32)cc1 (centres undefined) | 29.7 µM (inactive) | 14.8 µM (inactive) | 33 µM (inactive) | 24.4 µM (inactive) | 21 µM (inactive) | 18.3 µM (inactive) | 22.5 µM (inactive) | 16.1 µM (inactive) | 27.4 µM (inactive) | 41 µM (inactive) | 30.2 µM (inactive) | 29.6 µM (inactive) | 23.3 µM (inactive) | 19.3 µM (inactive) | 15.6 µM (inactive) | 16.3 µM (inactive) | 26.8 µM (inactive) | 41 µM (inactive) | 8.57 µM (inactive)
[O-]c1c[n+](-c2ccccc2)no1 | > 100 µM (inactive) | > 100 µM (inactive) | > 100 µM (inactive) | > 100 µM (inactive) | > 100 µM (inactive) | > 100 µM (inactive) | > 100 µM (inactive) | – | > 100 µM (inactive) | > 100 µM (inactive) | > 100 µM (inactive) | > 100 µM (inactive) | > 100 µM (inactive) | > 100 µM (inactive) | > 100 µM (inactive) | > 100 µM (inactive) | > 100 µM (inactive) | > 100 µM (inactive) | > 100 µM (inactive)
c1ccc(CC2COC(c3cccs3)=N2)cc1 (centres undefined) | > 100 µM (inactive) | > 100 µM (inactive) | > 73.8 µM (inactive) | > 100 µM (inactive) | > 91 µM (inactive) | 26 µM (inactive) | 43.8 µM (inactive) | 47.8 µM (inactive) | > 72.6 µM (inactive) | > 100 µM (inactive) | > 100 µM (inactive) | > 74.1 µM (inactive) | > 100 µM (inactive) | > 100 µM (inactive) | 46.7 µM (inactive) | > 79.8 µM (inactive) | > 68.9 µM (inactive) | > 45 µM (inactive) | 64.1 µM (inactive)
O=C(NCCSSCCNC(=O)/C(Cc1ccc(O)c(Br)c1)=N/O)/C(Cc1ccc(O)c(Br)c1)=N/O [PSAMMAPLIN A] | 1.72 µM (inactive) | 1.6 µM (inactive) | 2.17 µM (inactive) | 3.1 µM (inactive) | 1.62 µM (inactive) | 3.71 µM (inactive) | 1.1 µM (active) | 0.402 µM (active) | 1.78 µM (inactive) | 0.885 µM (active) | 0.597 µM (active) | 1.3 µM (inactive) | 1.35 µM (inactive) | 1.64 µM (inactive) | 0.38 µM (active) | 3.2 µM (inactive) | 0.933 µM (active) | 1.72 µM (inactive) | 1.74 µM (inactive)
CCOC(=O)CCC(NC(=O)c1ccc(Nc2nc3ccc(C(F)(F)F)cc3nc2-c2ccccc2)cc1)C(=O)OCC (centres undefined) | 17.3 µM (inactive) | 19.6 µM (inactive) | 28 µM (inactive) | 34.2 µM (inactive) | 55.6 µM (inactive) | 22.1 µM (inactive) | 19.1 µM (inactive) | 22.1 µM (inactive) | 21.6 µM (inactive) | > 100 µM (inactive) | 23.1 µM (inactive) | > 42 µM (inactive) | > 100 µM (inactive) | 16.2 µM (inactive) | 33.9 µM (inactive) | 97.1 µM (inactive) | – | 45.5 µM (inactive) | 31.5 µM (inactive)
Nc1nc(Cl)cc(NCC2(CO)CC(CCc3ccccc3)C2)n1 (centres undefined) | > 58.6 µM (inactive) | > 100 µM (inactive) | > 100 µM (inactive) | > 29.3 µM (inactive) | > 55.8 µM (inactive) | 0.542 µM (active) | 97.9 µM (inactive) | 8.38 µM (inactive) | > 81.1 µM (inactive) | > 37.6 µM (inactive) | > 100 µM (inactive) | 3.26 µM (inactive) | > 46 µM (inactive) | > 71.9 µM (inactive) | 1.31 µM (inactive) | 10.5 µM (inactive) | > 100 µM (inactive) | > 100 µM (inactive) | > 75.2 µM (inactive)
O=C1c2cccnc2S(=O)(=O)N1c1ccc([N+](=O)[O-])cc1 | > 100 µM (inactive) | > 100 µM (inactive) | > 100 µM (inactive) | > 100 µM (inactive) | > 100 µM (inactive) | > 100 µM (inactive) | > 100 µM (inactive) | > 100 µM (inactive) | > 100 µM (inactive) | > 100 µM (inactive) | 51.8 µM (inactive) | > 100 µM (inactive) | > 100 µM (inactive) | > 100 µM (inactive) | 29.9 µM (inactive) | > 100 µM (inactive) | > 100 µM (inactive) | > 100 µM (inactive) | > 100 µM (inactive)
CN1CCc2cc(N)cc3c2C1Cc1ccc2c(c1-3)OCO2 (centres undefined) | 22.8 µM (inactive) | 19.2 µM (inactive) | 19.6 µM (inactive) | 30 µM (inactive) | 33.5 µM (inactive) | 36.1 µM (inactive) | 36.1 µM (inactive) | 1.46 µM (inactive) | 49.2 µM (inactive) | 34.8 µM (inactive) | 20.9 µM (inactive) | 17.7 µM (inactive) | 30.7 µM (inactive) | 30.1 µM (inactive) | 11 µM (inactive) | 34 µM (inactive) | 44.9 µM (inactive) | 33.9 µM (inactive) | 35.2 µM (inactive)
CCN(CC)S(=O)(=O)c1ccc2[nH]c(NC(=O)OC)nc2c1 | – | 18.5 µM (inactive) | 7 µM (inactive) | 35.6 µM (inactive) | 99.3 µM (inactive) | 53.8 µM (inactive) | > 100 µM (inactive) | 20.4 µM (inactive) | > 100 µM (inactive) | 40.3 µM (inactive) | > 100 µM (inactive) | 42.6 µM (inactive) | 40.9 µM (inactive) | 96.8 µM (inactive) | 28.9 µM (inactive) | > 100 µM (inactive) | > 100 µM (inactive) | 30 µM (inactive) | 46.3 µM (inactive)
